Source: patent publication US10787442B2, “Modulators of indoleamine 2,3-dioxygenase” (GLAXOSMITHKLINE INTELLECTUAL PROPERTY DEVELOPMENT LIMITED, priority 2016, dated 2020)
Read-outs that look alike come from different tables or passages of the source.

Key:
[1] = test system: human peripheral blood mononuclear cells (PBMC); test: PBMC cytotoxicity assay (CellTiter-Glo); assay type: cell-based; settings: cytotoxicity in stimulated PBMC, recorded as pCC50
[2] = Toxicokinetics in Beagle dogs, 7 day repeat oral administration; assay type: in vivo, Beagle dog; settings: for Tmax / Cmax / AUC(0-t): Beagle, dog, plasma; for Therapeutic Index AUC (0-12 hr): versus predicted human efficacious AUC; for Therapeutic Index Cmax: versus predicted human efficacious Cmax; for Cmax / AUC(0-t): po; for AUC(0-t): read-out: AUC (0-12 hr)
Source text: (§1) To understand its toxicokinetics and potential effect on hepatic functions, EXAMPLE 6 was orally dosed to Beagle dogs for 7 consecutive days.

[3] = Tolerability and hepatic functions in Beagle dogs, 7 day repeat oral administration; assay type: in vivo, Beagle dog
Source text: as §1

[4] = female, 20 mg/kg, Day1, Female, 20 mg/kg PO BID
[5] = female, 20 mg/kg, Day7, Female, 20 mg/kg PO BID
[6] = male, 20 mg/kg, Day1, Male, 20 mg/kg PO BID
[7] = male, 20 mg/kg, Day7, Male, 20 mg/kg PO BID

Structure (SMILES): CC(C)CN(c1ncc([C@H](C)CC(=O)O)cc1Nc1ccc(Cl)cn1)C1CCOCC1 [Example 6, (R)-3-(5-((5-chloropyridin-2-yl)amino)-6-(isobutyl(tetrahydro-2H-pyran-4-yl)amino)pyridin-3-yl)butanoic acid]
- PBMC_TOX PXC50 [1]: <5.0
- Tmax ([2]; oral, 20 mg/kg, post dose on Days 1 and 7): 30 min
- Tmax ([2]; Day1, Female, 20 mg/kg PO BID): 30 min
- Tmax ([2]; Day1, Male, 20 mg/kg PO BID): 30 min
- Therapeutic Index AUC (0-12 hr) ([2]; Day1, Female, 20 mg/kg): 15
- Therapeutic Index Cmax ([2]; Day1, Female, 20 mg/kg): 86
- Therapeutic Index AUC (0-12 hr) ([2]; Day1, Male, 20 mg/kg): 25
- Therapeutic Index Cmax ([2]; Day1, Male, 20 mg/kg): 237
- average therapeutic coverage in AUC for the predicted human efficacious dose ([2]; Day 7): ~34 fold
- average therapeutic coverage in Cmax for the predicted human efficacious dose ([2]; Day 7): ~147 fold
- Therapeutic Index AUC (0-12 hr) ([2]; Day7, Female, 20 mg/kg): 51
- Therapeutic Index Cmax ([2]; Day7, Female, 20 mg/kg): 102
- Therapeutic Index AUC (0-12 hr) ([2]; Day7, Male, 20 mg/kg): 18
- Therapeutic Index Cmax ([2]; Day7, Male, 20 mg/kg): 191
- quantifiable in plasma post the start of the oral dose ([2]; Days 1 and 7): up to 24 hours
- Cmax on Days 1 and 7 ([2]; female dog): comparable
- increase in AUC0-12 following 7 day repeat dosing ([2]; female dog): ~3 fold
- Cmax [2, 4]: 3700 ng/mL
- AUC(0-t) [2, 4]: 5200 ng·h/mL
- Cmax [2, 5]: 4400 ng/mL
- AUC(0-t) [2, 5]: 17900 ng·h/mL
- systemic exposure (Cmax and AUC0-12 values) on Days 1 and 7 ([2]; male dog): similar
- Cmax [2, 6]: 10200 ng/mL
- AUC(0-t) [2, 6]: 8700 ng·h/mL
- Cmax [2, 7]: 8200 ng/mL
- AUC(0-t) [2, 7]: 6500 ng·h/mL
- clinical observations ([3]; 20 mg/kg PO BID for 7 days): no clinical observations
- tolerability throughout the study ([3]; 20 mg/kg PO BID for 7 days): well tolerated
- Hepatic functions measured by serum ALT, AST, ALP and T-Bil levels ([3]; 20 mg/kg PO BID for 7 days, FIG. 2): in the normal variable ranges
- Body weights ([3]; male and female dogs over the study, FIG. 1): constant
